Results as given in patent US8895236B2, “Composition for cryopreservation comprising nicotinamide, glycerol and red blood cells” (priority 1998, dated 2014).

Experiments:
red blood cells [1] = assay: Thaw and overall hemolysis, glycerol-based cryoprotectant with biochemical stabilization (Example 4); type: cell-based, human; settings: for % Hemolysis Thaw: frozen −80° C., thawed 37° C. water bath 10 minutes; for % Hemolysis Overall: overall hemolysis following the wash with 12%, 1.6% and 0.9% saline
Method: An aliquot of blood was transferred to a PVC storage bag, to which any experimental agents were added. Glycerol was then added until the desired final glycerol was achieved. This unit was frozen at −80° C., stored and thawed in a 37° C. water bath for 10 minutes. […] The values indicate the percent hemolysis in the thawed sample, the overall amount of hemolysis following the wash and the is percent of residual free hemoglobin in the final sample. Hemolysis is calculated as the ratio of free hemoglobin to the total hemoglobin content in the sample.

red blood cells [2] = assay: Thaw, overall and final hemolysis, glycerol based cryoprotectant with additives (Example 2); type: cell-based, human; settings: additives in 20% glycerol; for Hemolysis (%) Overall: after glycerol removal by serial dilution with saline; for Hemolysis (%) Final (residual free hemoglobin): final residual free hemoglobin after wash; for Hemolysis (%) Thaw: frozen −80° C. 2-7 days, thawed 37° C. 10 minutes
Method: Fifty ml of packed red blood cells were added to a PVC freezing bag. Isotonic saline or preservative solution containing the additional biochemical reagents of interest was mixed with the red blood cells. The samples were treated as follows prior to freezing at −80° C.: • 1. 40% Glycerol • 2. 20% Glycerol • 3. Nicotinamide • 4.
A volume of Glycerolyte 57 (Fenwall) was added slowly until the final concentration of glycerol was achieved. The total volume of all additions was 50 ml, making the final volume of the red blood cell unit 100 ml. The PVC bags were frozen at −80° C. for 2-7 days and thawed by submersion in a 37° C. water bath for 10 minutes. The level of thaw hemolysis was determined as the ratio of free hemoglobin to total hemoglobin. Additionally, the glycerol was removed from the thawed red blood cell units by serial dilution with saline similar to blood bank protocols. The overall hemolysis and the final residual free hemoglobin levels were also determined.

red blood cells [3] = assay: Thaw hemolysis of red blood cells frozen at −80° C. with reduced glycerol (Example 1); type: cell-based, human; settings: frozen at −80° C. 2-7 days, thawed 37° C. water bath 10 minutes; ratio of free to total hemoglobin
Method: A significant percentage of the hemolytic damage is shown to be reversed by the addition of a preservative solution containing adenine, glutamine, sodium chloride, mannitol, and dextrose, with the essential additive being dextrose, and final concentrations of 5 mM pentoxifylline and 25 μg/ml flurbiprofen in DMSO as a carrier.
Specifically, 50 ml of packed red blood cells was added to a PVC freezing bag with a maximum volume of 150 ml. Isotonic saline or preservative solution containing the additional biochemical reagents pentoxifylline and flurbiprofen was mixed with the red blood cells. A volume of Glycerolyte 57 (Fenwall) was added slowly until the final concentration of glycerol was achieved. The total volume of all additions was 50 ml, making the final […] of the red blood cell unit 100 ml. […] The levels of thaw hemolysis are shown below in TABLE 1.

red blood cells [4] = assay: Thaw and overall hemolysis, 10% glycerol reduced cryopreservation model (Example 3); type: cell-based, human; settings: 10% (w/v) glycerol base
Method: The model used is a reduced glycerol cryopreservation system. 10% (w/v) glycerol is added to the unit prior to freezing at −80° C.
A single unit of packed red blood cells in ADSOL was obtained using standard blood banking protocols. […] From this red blood cell unit 50 ml of red cells was placed into each of 3 PVC freezing bags having a maximum volume of 150 ml. An equal volume (50 ml) was added to each of the bags composed of the above preservation solution and the experimental conditions. The final composition of the first bag was 10% (w/v) glycerol. […] The overall hemolysis was also determined.

red blood cells [5] = test system: red blood cells
Description: Additionally, the glycerol was removed from the thawed red blood cell units by serial dilution with saline similar to blood bank protocols.

red blood cells [6] = settings: frozen storage at −80° C., glycerol washed out prior to transfusion; typical level; cited from earlier work
[7] = listed as 20% Glycerol with Control

Structure (SMILES) | Hemolysis (%) Overall (red blood cells [2]) [%] | Hemolysis (%) Final (residual free hemoglobin) (red blood cells [2]) [%] | Hemolysis (%) Thaw (red blood cells [2]) [%] | % Hemolysis (level of thaw hemolysis) (red blood cells [3]) [%] | further results
OCC(O)CO [20% Glycerol, glycerol] | 41.48 | 1.09 | 9.39 | 35.29 | % Hemolysis Thaw (red blood cells [1]; [7]): 37.9%; % Hemolysis Overall (red blood cells [1]; [7]): 52.0%
NC(=O)c1cccnc1 [Nicotinamide] | 22.93 | 0.43 | 8.13 | – | –
OCC(O)CO [10% Glycerol, glycerol] | – | – | – | – | % Hemolysis Overall (red blood cells [4]; after glycerol removal by serial dilution with saline): 93.62 ± 1.28%; % Hemolysis Thaw (red blood cells [4]; frozen −80° C. 2-7 days, thawed 37° C. 10 minutes): 61.71 ± 1.26%
C[S+](C)[O-] [DMSO, dimethyl sulfoxide] | – | – | – | – | % Hemolysis (red blood cells [5]): 23.17 ± 0.58%
OCC(O)CO [30% Glycerol, glycerol] | – | – | – | 3.53 | –
OCC(O)CO [40% Glycerol, glycerol] | 14.1 | 0.45 | 2.01 | 1.91 | % Hemolysis Thaw (red blood cells [1]): 1.9%; % Hemolysis Overall (red blood cells [1]): 6.1%; hemolysis during the wash procedure (red blood cells [6]): 10-15%
